Biological target: T1, SMARCA2 (Homo sapiens, UniProt P51531)
T1 construct: endogenous in cells; host or cells: HT1080 (CRISPR HiBiT knock-in clone, generated in house)
Test: SMARCA2 HiBiT degradation assay (cellular)
Type: cell-based
Conditions: table head names A549; for DC50: 6 h incubation, HiBiT-tagged SMARCA2, luminescence read-out, read-out: HiBit A549 SMARCA2 IP (nM) 6 h; for Emax: A549, 6 h incubation, Emax = amount of residual protein remaining in the cell following compound treatment

T1 sequence (P51531 whole entry): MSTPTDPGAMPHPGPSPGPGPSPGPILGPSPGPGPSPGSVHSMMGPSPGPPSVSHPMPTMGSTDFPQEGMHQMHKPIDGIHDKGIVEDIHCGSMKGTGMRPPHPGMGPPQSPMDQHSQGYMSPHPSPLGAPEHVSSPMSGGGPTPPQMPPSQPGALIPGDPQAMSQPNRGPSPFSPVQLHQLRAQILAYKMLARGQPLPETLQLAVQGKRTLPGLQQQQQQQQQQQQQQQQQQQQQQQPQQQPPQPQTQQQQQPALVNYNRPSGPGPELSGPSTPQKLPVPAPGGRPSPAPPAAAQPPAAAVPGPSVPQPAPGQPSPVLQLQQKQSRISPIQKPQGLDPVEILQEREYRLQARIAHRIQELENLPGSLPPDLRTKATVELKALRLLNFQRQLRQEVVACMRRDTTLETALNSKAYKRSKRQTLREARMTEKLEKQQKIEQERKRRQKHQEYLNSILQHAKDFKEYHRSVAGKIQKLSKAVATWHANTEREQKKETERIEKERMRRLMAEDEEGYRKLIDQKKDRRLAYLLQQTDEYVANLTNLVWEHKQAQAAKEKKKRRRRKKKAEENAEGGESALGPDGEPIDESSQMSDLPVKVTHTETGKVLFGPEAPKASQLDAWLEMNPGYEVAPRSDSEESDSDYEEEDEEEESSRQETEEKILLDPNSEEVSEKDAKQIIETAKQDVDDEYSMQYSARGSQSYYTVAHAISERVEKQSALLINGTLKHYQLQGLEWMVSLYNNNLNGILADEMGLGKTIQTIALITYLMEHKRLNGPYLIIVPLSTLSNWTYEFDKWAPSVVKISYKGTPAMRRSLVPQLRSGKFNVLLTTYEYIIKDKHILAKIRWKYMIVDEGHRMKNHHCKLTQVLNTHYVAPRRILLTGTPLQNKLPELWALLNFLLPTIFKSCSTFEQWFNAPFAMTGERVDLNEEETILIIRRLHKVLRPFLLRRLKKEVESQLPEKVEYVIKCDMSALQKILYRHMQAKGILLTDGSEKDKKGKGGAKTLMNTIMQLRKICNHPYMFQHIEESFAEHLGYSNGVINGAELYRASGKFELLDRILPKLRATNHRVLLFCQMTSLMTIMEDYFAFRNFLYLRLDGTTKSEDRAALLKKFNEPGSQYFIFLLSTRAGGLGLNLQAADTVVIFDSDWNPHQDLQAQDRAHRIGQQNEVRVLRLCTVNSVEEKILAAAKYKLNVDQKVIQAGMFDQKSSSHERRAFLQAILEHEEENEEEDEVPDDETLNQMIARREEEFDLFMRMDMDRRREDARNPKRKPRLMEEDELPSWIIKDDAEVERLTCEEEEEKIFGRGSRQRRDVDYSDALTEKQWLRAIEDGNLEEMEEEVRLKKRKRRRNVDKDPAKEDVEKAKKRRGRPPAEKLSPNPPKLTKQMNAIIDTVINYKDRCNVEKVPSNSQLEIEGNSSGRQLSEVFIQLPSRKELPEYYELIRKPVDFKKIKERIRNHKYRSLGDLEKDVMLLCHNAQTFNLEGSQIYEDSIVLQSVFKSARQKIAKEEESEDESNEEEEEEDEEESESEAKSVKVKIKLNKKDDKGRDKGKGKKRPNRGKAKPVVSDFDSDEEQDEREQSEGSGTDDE

Compound	DC50	Emax
Nc1nnc(-c2ccccc2O)cc1N1CC2CCC(C1)N2c1cccc(OCCN2CCN(C(=O)CCCCCCCNc3cccc4c3C(=O)N(C3CCC(=O)NC3=O)C4=O)CC2)c1 (racemic) [Example 11, rac-4-[[8-[4-[2-[3-[3-[3-amino-6-(2-hydroxyphenyl)pyridazin-4-yl]-3,8-diazabicyclo[3.2.1]octan-8-yl]phenoxy]ethyl]piperazin-1-yl]-8-oxo-octyl]amino]-2-(2,6-dioxo-3-piperidyl)isoindoline-1,3-dione]	146 nM	64%
Nc1nnc(-c2ccccc2O)cc1N1CC2CCC(C1)N2c1cccc(OCCN2CCN(CC3CCN(c4ccc5c(c4)C(=O)N(C4CCC(=O)NC4=O)C5=O)CC3)CC2)c1 (racemic) [Example 38, rac-5-[4-[[4-[2-[3-[3-[3-amino-6-(2-hydroxyphenyl)pyridazin-4-yl]-3,8-diazabicyclo[3.2.1]octan-8-yl]phenoxy]ethyl]piperazin-1-yl]methyl]-1-piperidyl]-2-(2,6-dioxo-3-piperidyl)isoindoline-1,3-dione]	20 nM	29%
Nc1nnc(-c2ccccc2O)cc1N1CCC(C(=O)N2CCC3(CC2)CN(C(=O)CC2CCN(c4ccc5c(c4)C(=O)N(C4CCC(=O)NC4=O)C5=O)CC2)CCO3)(c2ccccc2)CC1 (centres unmarked) [Example 168, 5-(4-(2-(9-(1-(3-amino-6-(2-hydroxyphenyl)pyridazin-4-yl)-4-phenylpiperidine-4-carbonyl)-1-oxa-4,9-diazaspiro[5.5]undecan-4-yl)-2-oxoethyl)piperidin-1-yl)-2-(2,6-dioxopiperidin-3-yl)isoindoline-1,3-dione]	111 nM	60%
Nc1nnc(-c2ccccc2O)cc1N1CCC(C(=O)NCC2CCN(C(=O)CN3CCC(c4ccc(NC5CCC(=O)NC5=O)cc4)CC3)CC2)(c2ccccc2)CC1 (centres unmarked) [Example 102, 1-[3-amino-6-(2-hydroxyphenyl)pyridazin-4-yl]-N-[[1-[2-[4-[4-[(2,6-dioxopiperidin-3-yl)amino]phenyl]piperidin-1-yl]acetyl]piperidin-4-yl]methyl]-4-phenylpiperidine-4-carboxamide]	102 nM	38%
Nc1nnc(-c2ccccc2O)cc1N1CC2CCC(C1)N2c1cccc(CN2CCC(C(=O)NC3CN(c4ccc5c(c4)C(=O)N(C4CCC(=O)NC4=O)C5=O)C3)CC2)c1 (racemic) [Example 134, rac-1-[[3-[3-[3-amino-6-(2-hydroxyphenyl)pyridazin-4-yl]-3,8-diazabicyclo[3.2.1]octan-8-yl]phenyl]methyl]-N-[1-[2-(2,6-dioxo-3-piperidyl)-1,3-dioxo-isoindolin-5-yl]azetidin-3-yl]piperidine-4-carboxamide]	31 nM	36%
Nc1nnc(-c2cc(F)cc(F)c2O)cc1N1CCC(CNC(=O)CCCN2CCC(c3ccc(OC4CCC(=O)NC4=O)cc3)CC2)(c2ccccc2)CC1 (centres unmarked) [Example 182, N-[[1-[3-amino-6-(3,5-difluoro-2-hydroxy-phenyl)pyridazin-4-yl]-4-phenyl-4-piperidyl]methyl]-4-[4-[4-[(2,6-dioxo-3-piperidyl)oxy]phenyl]-1-piperidyl]butanamide]	103 nM	47%
Nc1nnc(-c2ccccc2O)cc1N1CCC(C(=O)N2CC3(CN(C(=O)CCCN4CCC(c5ccc(OC6CCC(=O)NC6=O)cc5)CC4)C3)C2)(c2ccccc2)CC1 (centres unmarked) [Example 123, 3-(4-(1-(4-(6-(1-(3-amino-6-(2-hydroxyphenyl)pyridazin-4-yl)-4-phenylpiperidine-4-carbonyl)-2,6-diazaspiro[3.3]heptan-2-yl)-4-oxobutyl)piperidin-4-yl)phenoxy)piperidine-2,6-dione]	75 nM	34%
Nc1nnc(-c2ccccc2O)cc1N1CC2CCC(C1)N2c1cccc(CN2CCC(C(=O)N3CCC(c4ccc(OC5CCC(=O)NC5=O)cc4)CC3)CC2)c1 (racemic) [Example 92, rac-3-[4-[1-[1-[[3-[3-[3-amino-6-(2-hydroxyphenyl)pyridazin-4-yl]-3,8-diazabicyclo[3.2.1]octan-8-yl]phenyl]methyl]piperidine-4-carbonyl]-4-piperidyl]phenoxy]piperidine-2,6-dione]	17 nM	41%
Nc1nnc(-c2ccccc2O)cc1N1CC2CCC(C1)N2c1cccc(OCCN2CCN(CCOC3CCN(c4ccc5c(c4)C(=O)N(C4CCC(=O)NC4=O)C5=O)CC3)CC2)c1 (racemic) [Example 35, rac-5-[4-[2-[4-[2-[3-[3-[3-amino-6-(2-hydroxyphenyl)pyridazin-4-yl]-3,8-diazabicyclo[3.2.1]octan-8-yl]phenoxy]ethyl]piperazin-1-yl]ethoxy]-1-piperidyl]-2-(2,6-dioxo-3-piperidyl)isoindoline-1,3-dione]	22 nM	33%
CN(C(=O)C1CCN(Cc2cccc(N3C4CCC3CN(c3cc(-c5ccccc5O)nnc3N)C4)c2)CC1)C1CN(c2ccc3c(c2)C(=O)N(C2CCC(=O)NC2=O)C3=O)C1 (racemic) [Example 170, rac-1-[[3-[3-[3-amino-6-(2-hydroxyphenyl)pyridazin-4-yl]-3,8-diazabicyclo[3.2.1]octan-8-yl]phenyl]methyl]-N-[1-[2-(2,6-dioxo-3-piperidyl)-1,3-dioxo-isoindolin-5-yl]azetidin-3-yl]-N-methyl-piperidine-4-carboxamide]	18 nM	31%
CC(Nc1cccc2c1C(=O)N(C1CCC(=O)NC1=O)C2=O)c1cn(CCCCCCCCCN2CCN(c3ccc(N4CCC[C@H](Oc5cc(-c6ccccc6O)nnc5N)C4)cc3)CC2)nn1 (mixture of isomers) [Example 201, 2-(2,6-dioxo-3-piperidyl)-4-[1-[1-[9-[4-[4-[rac-(3S)-3-[3-amino-6-(2-hydroxyphenyl)pyridazin-4-yl]oxy-1-piperidyl]phenyl]piperazin-1-yl]nonyl]triazol-4-yl]ethylamino]isoindoline-1,3-dione]	79 nM	37%
Nc1nnc(-c2ccccc2O)cc1O[C@H]1CCCN(c2ccc(N3CCN(CCCCC(=O)N4CCC(Cn5cc(COc6cccc7c6C(=O)N(C6CCC(=O)NC6=O)C7=O)nn5)CC4)CC3)cc2)C1 (mixture of isomers) [Example 135, 2-(2,6-dioxo-3-piperidyl)-4-[[1-[[1-[5-[4-[4-[rac-(3S)-3-[3-amino-6-(2-hydroxyphenyl)pyridazin-4-yl]oxy-1-piperidyl]phenyl]piperazin-1-yl]pentanoyl]-4-piperidyl]methyl]triazol-4-yl]methoxy]isoindoline-1,3-dione]	382 nM	35%
Nc1nnc(-c2ccccc2O)cc1N1CC(Oc2cccc(N3CCN(C(=O)CN4CCC(c5ccc(NC6CCC(=O)NC6=O)cc5)CC4)CC3)c2)C1 (racemic) [Example 112, rac-3-[4-[1-[2-[4-[3-[1-[3-amino-6-(2-hydroxyphenyl)pyridazin-4-yl]azetidin-3-yl]oxyphenyl]piperazin-1-yl]-2-oxo-ethyl]-4-piperidyl]anilino]piperidine-2,6-dione]	101 nM	51%
Nc1nnc(-c2ccccc2O)cc1N1CC(Oc2ccc(C(=O)N3CCN(C(=O)C4CCN(c5ccc6c(c5)C(=O)N(C5CCC(=O)NC5=O)C6=O)CC4)CC3)c(Cl)c2)C1 (racemic) [Example 125, rac-5-[4-[4-[4-[1-[3-amino-6-(2-hydroxyphenyl)pyridazin-4-yl]azetidin-3-yl]oxy-2-chloro-benzoyl]piperazine-1-carbonyl]-1-piperidyl]-2-(2,6-dioxo-3-piperidyl)isoindoline-1,3-dione]	30 nM	42%
Nc1nnc(-c2ccccc2O)cc1N1CCN(c2cccc(CN3CCN(C(=O)CC4CCN(c5ccc6c(c5)C(=O)N(C5CCC(=O)NC5=O)C6=O)CC4)CC3)c2)C2(CC2)C1 (centres unmarked) [Example 130, 5-(4-(2-(4-(3-(7-(3-amino-6-(2-hydroxyphenyl)pyridazin-4-yl)-4,7-diazaspiro[2.5]octan-4-yl)benzyl)piperazin-1-yl)-2-oxoethyl)piperidin-1-yl)-2-(2,6-dioxopiperidin-3-yl)isoindoline-1,3-dione]	12 nM	43%
Nc1nnc(-c2ccccc2O)cc1N1CCN(c2cccc(CN3CCN(C(=O)CCC4CCN(c5ccc6c(c5)C(=O)N(C5CCC(=O)NC5=O)C6=O)CC4)CC3)c2)C2(CC2)C1 (centres unmarked) [Example 128, 5-(4-(3-(4-(3-(7-(3-amino-6-(2-hydroxyphenyl)pyridazin-4-yl)-4,7-diazaspiro[2.5]octan-4-yl)benzyl)piperazin-1-yl)-3-oxopropyl)piperidin-1-yl)-2-(2,6-dioxopiperidin-3-yl)isoindoline-1,3-dione]	18 nM	37%
Nc1nnc(-c2ccccc2O)cc1N1CCC(C(=O)N2CC3(CCN(C(=O)CN4CCC(c5ccc(NC6CCC(=O)NC6=O)cc5)CC4)CC3)C2)(c2ccccc2)CC1 (centres unmarked) [Example 165, 3-((4-(1-(2-(2-(1-(3-amino-6-(2-hydroxyphenyl)pyridazin-4-yl)-4-phenylpiperidine-4-carbonyl)-2,7-diazaspiro[3.5]nonan-7-yl)-2-oxoethyl)piperidin-4-yl)phenyl)amino)piperidine-2,6-dione]	28 nM	38%
Nc1nnc(-c2ccccc2O)cc1N1CCC(CNC(=O)CCCN2CCC(c3ccc(OC4CCC(=O)NC4=O)cc3)CC2)(c2ccccc2)CC1 (centres unmarked) [Example 78, N-((1-(3-amino-6-(2-hydroxyphenyl)pyridazin-4-yl)-4-phenylpiperidin-4-yl)methyl)-4-(4-(4-((2,6-dioxopiperidin-3-yl)oxy)phenyl)piperidin-1-yl)butanamide]	23 nM	35%
Nc1nnc(-c2cc(F)ccc2O)cc1N1C2CCC1CN(c1cccc(OCCN3CCN(CC4CCN(c5ccc6c(c5)C(=O)N(C5CCC(=O)NC5=O)C6=O)CC4)CC3)c1)C2 (centres unmarked) [Example 57, 5-[4-[[4-[2-[3-[8-[3-amino-6-(5-fluoro-2-hydroxy-phenyl)pyridazin-4-yl]-3,8-diazabicyclo[3.2.1]octan-3-yl]phenoxy]ethyl]piperazin-1-yl]methyl]-1-piperidyl]-2-(2,6-dioxo-3-piperidyl)isoindoline-1,3-dione]	406 nM	67%
